Consider 1 compound from patent US12589103B2, “Antimicrobial and antiviral effects of C2-C7 alkyl boronic acids” (CORNELL UNIVERSITY, priority 2019, dated 2026).

Data set [1] relates to enteric pathogens (E. coli, Salmonella, Listeria monocytogenes, Klebsiella). Nature of the data set: Bacterial growth panel, OD600 growth-curve AUC ratio (heat map). In kind it is cell-based.
Data set [2] deals with Salmonella. As to the kind of experiment: Adhesion and invasion of colonic epithelial cells by Salmonella. In kind it is cell-based.
Data set [3] relates to cancer associated E. coli (HM288). As to the kind of experiment: Growth in M9 media. The following applies: EBA 10-40 mM.
In data set [4] the test system is AIEC in murine macrophage J774A.1 cells. As to the kind of experiment: Uptake and survival of AIEC in J774A.1 macrophages. It is filed as cell-based, E. coli.
Data set [5] has as its system AIEC and cancer associated E. coli. Nature of the data set: Soft agar motility assay, E. coli. In kind it is cell-based. The following applies: 10 h, AIEC NC101, 541-1, cancer associated E. coli. On the procedure: (§1) The ability of ABA C1-3 and BA to impact the motility of E. coli and Salmonella was evaluated using sloppy agar treated with and without BA and C1-C3 alkyl boronic acids. Motility is strongly linked to the virulence phenotype of these bacterial strains. E. coli was grown overnight at 37° C. in LB broth. Soft agar plates (1% tryptone, 0.5% NaCl, 0.25% agar) were prepared the day before the assay was carried out. Sterile NaCl (control), boric or boronic acid stock solution was added into the agar right before pouring the plates. The overnight cultures of E. coli were transferred (3 μl) on to the center of each plate, followed by incubation of the plates at 37° C. for 10 h. E. coli motility was quantified by measuring the diameter of the circular swarming area formed by the growing motile bacteria.

In a further data set the test system is Listeria monocytogenes. As to the kind of experiment: Bacterial growth panel, Listeria. It is filed as cell-based. On the procedure: (§2) The control sample contained 40 mM NaCl.
Growth of bacteria with or without addition of C2-C8 C10, and C12 alkyl boronic acids, BA, or FMPBA was monitored by readings at OD600. […] The area under the curve (“AUC”) of the growth curve was calculated and the results were expressed as AUC+test compound:AUC−test compound.

Data set [6] relates to Salmonella. Nature of the data set: Soft agar motility assay, Salmonella. The following applies: % motility of the control. It is filed as cell-based. The protocol: as §1
Another data set concerns AIEC 541-1 and LF82. Nature of the data set: Adhesion and invasion of Caco-2 cells by AIEC. It is filed as cell-based, E. coli. The following applies: 30 mM, m.o.i 10, 3 h.
The subject of data set [7] is Salmonella. As to the kind of experiment: Growth of five Salmonella strains. It is filed as cell-based. The protocol: as §2
In another data set the test system is Feline Lung cells. As to the kind of experiment: Cytotoxicity in FIPV infected Feline Lung cells.
Data set [8] deals with Feline Infectious Peritonitis Virus (FIPV) Black (TN-406). Nature of the data set: FIPV replication and syncytium formation, immunofluorescence. In kind it is cell-based, Feline Coronavirus type I. The following applies: 10, 20, 30, 40 mM; Feline Lung cells, 18 h post-infection.
The test system of data set [9] is adherent invasive E. coli (AIEC, 541-1). Nature of the data set: Growth in M9 media with ethanolamine or NH4Cl. The following applies: BA, EBA 10-40 mM, PBA 15 mM, MBA 30 mM.
Data set [10] deals with diarrheagenic E. coli and APEC. Nature of the data set: Growth of diarrheagenic and APEC E. coli in LB media. In kind it is cell-based. To be noted: 30 mM. The protocol: as §2
Diarrheagenic E. coli pathogroups differ by their preferential host colonization sites, virulence mechanisms, and clinical symptoms.

The subject of the next data set is nF-κB. Nature of the data set: E. coli induced nF-κB activation in HEK-Blue KD-TLR5 cells (SEAP reporter). It is filed as cell-based. To be noted: m.o.i 20, SEAP at 24 h. The protocol:
HEK-Blue KD-TLR5 cells were used to detect the promotor activation of nF-κB by E. coli infection with or without boric or boronic acid treatment. nF-κB is the prototypical transcription factor for pro-inflammatory cytokines in epithelium. Briefly, cells were seeded in 96-well plates at a density of 5×10^4 cells per well. E. coli was diluted into fresh cell medium containing either NaCl (Control), boric or boronic acid at an m.o.i of 200 as 10× inocula, followed by addition of this inoculum (10 μl) into each well containing 100 μl of medium for a final m.o.i of 20. At 3 h post infection, the cell medium was carefully removed from each well, and replaced with 100 μl of fresh medium containing gentamycin (200 μg mL^−1). At 24 h post infection, the spent medium was collected, and centrifuged at 12,000 r.p.m. for 5 min to remove any particulate matter. QUANTI-Blue Kit (InvivoGen, San Diego, CA, USA) was used to detect the reporter protein SEAP (secreted alkaline phosphatase) following the manufacturer's instructions.

For data set [11], the system named is AIEC E. coli (541-1, LF82) virulence genes. Nature of the data set: Virulence gene expression of AIEC (qRT-PCR). In kind it is cell-based. The following applies: 30 mM. On the procedure:
Total RNA was extracted using the Qiagen RNAProtect-RNeasy Kit per manufacturer's protocol. Total RNA was treated with TURBO DNA-Free Kit (Ambion), followed by a two-step qRT-PCR analysis, using Qiagen's QuantiTect Reverse Transcription Kit and QuantiNova SYBR Green PCR Kit. Each qPCR reaction contained 1 μl of cDNA, 0.7 μl of each forward and reverse primers (10 μM), 5 μL of 2× SYBR Green Master Mix, 1 μl of QN ROX Reference Dye and […] of nuclease-free water to make the total volume of 10 μl. The reaction was run with ABI7000 (Applied Biosystems). […] The relative change of a targeted gene expression was calculated by using the equation RQ=2^−ΔΔCT.

The test system of data set [12] is AIEC E. coli isolated from people (MDR and non-MDR strains). Nature of the data set: Growth of MDR and non-MDR E. coli associated with Crohn's disease. In kind it is cell-based. The following applies: 40 mM, LB broth, 48 hrs. The protocol: The ability of C1-C3 alkyl boronic acids and BA to impact the growth of MDR E. coli isolated from people and dogs was evaluated using a temperature controlled 96-well multiplate incubator at 37° C. over 48 hrs. Growth in media (LB broth) with and without ABA C2-6 (40 mM) was monitored by readings at OD600 with the AUC of the growth curve calculated.

Entries after “also recorded” stand apart in the source; their conditions may differ.

Description for AIEC 541-1 and LF82: E. coli was cultured overnight in LB at 37° C. with shaking. Bacterial pellets were re-suspended in PBS before dilution in cell culture media±30 mM boronic acid or alkyl boronic acid to an m.o.i (multiplicity of infection) of 10. Caco-2 cells were infected with the diluted E. coli for 3 h at 37° C. before washing with PBS, then lysed with 1% Triton X-100. Serial dilutions of the lysates were made in PBS and plated on LB agar. The total number of colonies recovered was used to calculate the number of adherent bacteria. For invasion assays, cells were treated with gentamicin (100 μg mL−1) for one hour after initial infection and 3× wash with PBS to kill extracellular bacteria. Cells were then washed 3× after gentamicin treatment, lysed and plated as described above.

As for `CCB(O)O` [EBA, ethyl boronic acid], the “antibacterial activity / potency against enteric pathogens (growth, AUC+test compound:AUC−test compound)” value in data set [1] (40 mM (BA, EBA, PBA), 20 mM (BBA), 10 mM (PeBA), 5 mM (HBA, SBA), 1 mM (OBA), 0.5 mM (DBA), 2 mM (DoDBA), 20 mM (FMPBA), 24-48 hrs) is “higher potency against enteropathogens”. Besides, the “selectivity for Gram Negative enteropathogens” value in data set [1] (growth panel) is reported as “highest”. In addition, in the data set on Salmonella [2], the “suppression of adhesion and invasion of Salmonella” value is listed as 40-50%. Moreover, the “inhibition of growth of cancer associated E. coli HM288” value in [3] is listed as “effective”. Further, in data set [4] (30 mM during infection, 24 h post infection), the “survival of AIEC in J774A.1 macrophages” value is given as “inhibited the survival”. Moreover, the “uptake of AIEC by J774A.1 macrophages” value in [4] (30 mM, 1 h) is “inhibited the uptake”. The “motility of E. coli” value in data set [5] was “highly effective at blocking motility of AIEC and cancer associated E. coli”. Further, the “selectivity of activity against Listeria monocytogenes” value in the data set on Listeria monocytogenes was “selectivity apparent”. Further, the “motility of Salmonella” value in the data set with Salmonella [6] is recorded as “highly effective at blocking motility of Salmonella”. The “adhesion and invasion of Caco-2 by AIEC” value with AIEC 541-1 and LF82 is “suppress adhesion and invasion of Caco-2 by AIEC 541-1 and LF82”. Moreover, the “inhibition of growth of Salmonella serovars” value with Salmonella [7] is listed as “inhibit the growth of multiple serovars of Salmonella more effectively than BA”. For the same compound, the “cytotoxicity in antiviral assay” value with Feline Lung cells is reported as “Cytotoxicity was not observed at antiviral doses”. Also, the “replication and syncytium formation of FIPV” value in data set [8] is “inhibited replication and syncytium formation of FIPV in infected cells”. The “inhibition of growth of AIEC 541-1” value in data set [9] was “much more effective”. Also, the “degree of cytopathic effect” value in the data set on Caco-2 cells was “EBA<BA<PBA”. Moreover, the “inhibition of growth of diarrheagenic and APEC E. coli” value in data set [10] is “have activity versus the diarrheagenic E. coli and APEC that varies by pathogroup; also recorded: more effective in inhibiting bacterial growth than BA overall”. In addition, in the data set with nF-κB, the “induction of nF-κB by E. coli” value is reported as “reduced the induction of nF-κB by E. coli”. In addition, in [11], the “pduC expression in 541-1” value is on record as “Upregulation”. The “virulence gene expression of AIEC” value in [11] (mid log phase, compared with BA) was “inhibited virulence gene expression”. In addition, in data set [12], the “growth inhibition of Crohn's disease associated AIEC, MDR and non-MDR” value is “more effective than BA over a wider range of AIEC, including MDR and non-MDR strains”.
